How the values were obtained:
PTH1 receptor = settings: Gardella 1996; Sneddon 2004; Bisello 2002; cited from earlier work
[1] = target: type I PTH/PTH-related peptide receptor (PTH1R), endogenous in primary murine osteoblasts (mouse) (UniProt P41593); experiment: cell-based or functional assay
[2] = target: T1, AT1A angiotensin receptor (Rattus norvegicus, UniProt P25095); settings: cited from earlier work
T1 sequence (P25095 1-359): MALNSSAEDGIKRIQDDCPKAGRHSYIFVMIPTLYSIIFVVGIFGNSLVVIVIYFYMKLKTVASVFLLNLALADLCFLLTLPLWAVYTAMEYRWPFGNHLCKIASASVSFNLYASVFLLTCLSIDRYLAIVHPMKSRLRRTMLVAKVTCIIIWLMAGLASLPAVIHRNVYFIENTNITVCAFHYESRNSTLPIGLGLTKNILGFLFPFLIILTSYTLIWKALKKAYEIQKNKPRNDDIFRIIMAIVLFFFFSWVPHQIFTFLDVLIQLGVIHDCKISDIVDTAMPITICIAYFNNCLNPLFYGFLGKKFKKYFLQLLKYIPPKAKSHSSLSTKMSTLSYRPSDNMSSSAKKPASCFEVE

type I PTH/PTH-related peptide receptor (PTH1R), endogenous in primary murine osteoblasts (mouse), sequence (P41593 27-591): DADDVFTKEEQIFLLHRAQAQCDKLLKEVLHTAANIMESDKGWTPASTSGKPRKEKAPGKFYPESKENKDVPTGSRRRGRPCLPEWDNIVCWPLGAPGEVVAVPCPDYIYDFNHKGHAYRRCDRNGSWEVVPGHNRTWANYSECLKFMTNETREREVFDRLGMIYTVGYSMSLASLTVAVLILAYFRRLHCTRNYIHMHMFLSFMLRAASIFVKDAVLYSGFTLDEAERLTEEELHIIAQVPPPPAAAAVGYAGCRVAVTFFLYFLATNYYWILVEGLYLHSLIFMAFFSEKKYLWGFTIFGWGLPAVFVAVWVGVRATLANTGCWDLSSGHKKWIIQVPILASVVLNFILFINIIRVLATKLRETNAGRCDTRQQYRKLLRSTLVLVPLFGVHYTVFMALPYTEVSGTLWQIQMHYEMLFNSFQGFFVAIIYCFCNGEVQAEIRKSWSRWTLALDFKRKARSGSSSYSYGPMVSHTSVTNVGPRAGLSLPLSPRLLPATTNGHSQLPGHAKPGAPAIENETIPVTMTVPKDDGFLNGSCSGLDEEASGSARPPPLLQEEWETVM

Trp^l-PTHrP(1-36) (WVSEHQLLHDKGKSIQDLRRRFFLHHLIAEIHTAEI; Parathyroid hormone-related protein; UniProt P12272 37-72, looked up, variant A1W) [PTHrP analog promoting Gs-coupling without β-arrestin recruitment, reference compound]
PTH1 receptor-Gs coupling / cAMP production (PTH1 receptor): promoting Gs-coupling and cAMP production | arrestin-dependent sequestration / β-arrestin recruitment (PTH1 receptor): without inducing β-arrestin recruitment or desensitization

PTH(1-34) (peptide)
ERK1/2 phosphorylation in WT primary osteoblasts, 100 nM PTH(1-34), 5 min (fold over basal) [1]: 3

(D-Trp12, Tyr34)-PTH(7-34) (from UniProt P01268 38-65) (peptide)
ERK1/2 phosphorylation in WT primary osteoblasts, 1 µM PTH-βarr, 5 min (fold over basal) [1]: 3

[Sar1,Ile4,Ile8]SII
G protein-independent/β-arrestin-dependent signaling to ERK1/2 [2]: selectively stimulating G protein-independent/β-arrestin-dependent 7TMR signaling to ERK1/2
